The values below are quoted from earlier work in patent US20160107977A1, “METHODS OF SYNTHESIS OF INGENOL AND INTERMEDIATES THEREOF” (LEO LABORATORIES LIMITED, priority 2013, published 2016).

In data set [1] the test system is breast cancer cell line MDA-MB-231. The following applies: p53-mediated pathway, Vigone et al. 2005.
Data set [2] has as its system breast cancer cell line T47D. The conditions noted are these: p53-mediated pathway, Vigone et al. 2005.
Another data set relates to Epstein-Barr virus. The following applies: lymphoblastoid cells; Keller et al. 1982.

Take `CC1=CC23C(=O)C(C=C(COC(=O)c4ccccc4)C(O)C2(O)C1O)C1C(CC3C)C1(C)C` (stereo not drawn) [ingenol-20-benzoate]: the antitumour activity entry in data set [1] was “antitumour activity characterized by inhibition of cell growth and apoptotic cell death”; in data set [2], “antitumour activity characterized by inhibition of cell growth and apoptotic cell death”.
`CCCCCCCCCCCCCCCC(=O)O[C@H]1C(C)=C[C@]23C(=O)[C@@H](C=C(CO)[C@@H](O)[C@]12O)[C@H]1[C@@H](C[C@H]3C)C1(C)C`: the Epstein-Barr virus induction entry in the data set with Epstein-Barr virus is on record as “most potent Epstein-Barr virus inducer”.
